# Experiments:
# C. difficile NR-49277 [1] = assay: Toxin A and B production inhibition, ELISA; type: cell-based, Clostridium difficile; details: C. difficile NR-49277, ¼×MIC and ½×MIC
# Procedure: (§1) To investigate DIHQs toxin production inhibitory activity, toxin A and toxin B levels were measured as described previously. […] An aliquot from each tube was diluted and plated on BHIS agar plates and incubated anaerobically at 37° C. for 24 hours to detect the bacterial count. The total concentration of C. difficile toxin A and B was measured in the supernatant of each tube using enzyme linked immunosorbent assay (ELISA) kit (tgc BIOMICS, Dunwoody, GA) following the manufacturer's instructions. The (OD450-OD620) values, corresponding to the toxin concentration, were measured for DIHQ and control drugs.
# [2] = tested on: C. difficile ATCC BAA-1870; assay: Toxin A and B production inhibition, ELISA; type: cell-based, Clostridium difficile; details: C. difficile ATCC BAA-1870, ¼×MIC and ½×MIC
# Procedure: as §1
# C. difficile ATCC 43255 [3] = assay: Toxin A and B production inhibition, ELISA; type: cell-based, Clostridium difficile; details: C. difficile ATCC 43255, ¼×MIC and ½×MIC
# Procedure: as §1
# C. difficile NR-49277 [4] = assay: Time kill kinetics assay; type: cell-based, Clostridium difficile; details: C. difficile NR-49277, 5×MIC, 37° C.
# Procedure: (§2) Time kill kinetics assay. In order to examine the killing kinetics of DIHQ, a time kill kinetics assay was performed against Clostridium difficile ATCC BAA 1870 and C. difficile NR-49277 as described previously. […] Aliquots were collected from each treatment after 0, 4, 6, 8, 12, and 24 hours of incubation at 37° C. and subsequently serially diluted and plated for viable CFU/mL determination.
# [5] = tested on: C. difficile ATCC BAA-1870; assay: Time kill kinetics assay; type: cell-based, Clostridium difficile; details: C. difficile ATCC BAA-1870, 5×MIC, 37° C.
# Procedure: as §2
# C. difficile I9 = assay: Checkerboard assay, DIHQ with metronidazole or vancomycin; type: cell-based, Clostridium difficile; details: C. difficile I9
# Procedure: (§3) The fractional inhibitory concentration index (ΣFIC) was calculated for each interaction. Interactions where the ΣFIC index was ≤0.5 were categorized as synergistic (SYN).
# [6] = tested on: C. difficile ATCC BAA-1870; assay: as above; type: cell-based, Clostridium difficile; details: C. difficile ATCC BAA-1870
# Procedure: as §3
# C. difficile ATCC 43255 [7] = assay: as above; type: cell-based, Clostridium difficile; details: C. difficile ATCC 43255
# Procedure: as §3
# C. difficile ATCC 43255 [8] = assay: Initial screening of antiparasitic drugs, broth microdilution MIC; type: cell-based, Clostridium difficile; details: Clostridioides difficile, ATCC43255; initial screening, C. difficile ATCC 43255; read-out: MIC
# Procedure: C. difficile strains were grown anaerobically on brain heart infusion supplemented (BHIS) agar plates at 37° C. for 48 hours. Afterwards, a bacterial solution equivalent to 0.5 McFarland standard was prepared and diluted in (BHIS) broth to achieve a bacterial concentration of about 5×10^5 CFU/mL. Drugs were added and serially diluted along the plates. Plates were then, incubated anaerobically at 37° C. for 48 hours. MICs reported in Table (1) are the minimum concentrations of the drugs that could completely suppress the visual growth of bacteria.
# [9] = tested on: Lactobacillus reuteri HM-102; assay: MIC against normal gut microflora, broth microdilution; type: cell-based; details: Limosilactobacillus reuteri, HM102; Lactobacillus reuteri HM-102; read-out: MIC
# Procedure: (§4) In vitro antimicrobial evaluation of diiodohydroxyquinoline against normal microflora. The broth microdilution assay was utilized to determine the MICs of DIHQ and control antibiotics against commensal organisms that compose he human gut microflora, as described elsewhere. A bacterial solution equivalent to 0.5 McFarland standard was prepared and diluted in BHIS broth (for Bifidobacterium and Bacteroides) or in MRS broth (for Lactobacillus) to achieve a bacterial concentration of about 5×10^5 CFU/mL. Then, drugs were added and serially diluted along the plates.
# [10] = tested on: Bifidobacterium longum HM-845; assay: as above; type: cell-based; details: HM845; Bifidobacterium longum HM-845; read-out: MIC
# Procedure: as §4
# Bacteroides dorei HM-29 = assay: as above; type: cell-based; details: Phocaeicola dorei, HM29; Bacteroides dorei HM-29; read-out: MIC
# Procedure: as §4
# [11] = tested on: Bifidobacterium angulatum HM-1189; assay: as above; type: cell-based; details: HM1189; Bifidobacterium angulatum HM-1189; read-out: MIC
# Procedure: as §4
# [12] = tested on: Bacteroides fragilis HM-710; assay: as above; type: cell-based; details: HM710; Bacteroides fragilis HM-710; read-out: MIC
# Procedure: as §4
# [13] = tested on: Bifidobacterium breve HM-1120; assay: as above; type: cell-based; details: HM1120; Bifidobacterium breve HM-1120; read-out: MIC
# Procedure: as §4
# [14] = tested on: Lactobacillus crispatus HM-371; assay: as above; type: cell-based; details: HM371; Lactobacillus crispatus HM-371; read-out: MIC
# Procedure: as §4
# Bacteroides dorei HM-719 = assay: as above; type: cell-based; details: Phocaeicola dorei, HM719; Bacteroides dorei HM-719; read-out: MIC
# Procedure: as §4
# [15] = tested on: Bacteroides fragilis HM-709; assay: as above; type: cell-based; details: HM709; Bacteroides fragilis HM-709; read-out: MIC
# Procedure: as §4
# [16] = tested on: Bifidobacterium breve HM-411; assay: as above; type: cell-based; details: HM411; Bifidobacterium breve HM-411; read-out: MIC
# Procedure: as §4
# [17] = tested on: Lactobacillus casei ATCC 334; assay: as above; type: cell-based; details: Lacticaseibacillus casei, ATCC334; Lactobacillus casei ATCC 334; read-out: MIC
# Procedure: as §4
# [18] = tested on: Bacteroides fragilis HM-711; assay: as above; type: cell-based; details: HM711; Bacteroides fragilis HM-711; read-out: MIC
# Procedure: as §4
# Bacteroides dorei HM-717 = assay: as above; type: cell-based; details: Phocaeicola dorei, HM717; Bacteroides dorei HM-717; read-out: MIC
# Procedure: as §4
# Bacteroides dorei HM-718 = assay: as above; type: cell-based; details: Phocaeicola dorei, HM718; Bacteroides dorei HM-718; read-out: MIC
# Procedure: as §4
# [19] = tested on: Bifidobacterium adolescentis HM-633; assay: as above; type: cell-based; details: HM633; Bifidobacterium adolescentis HM-633; read-out: MIC
# Procedure: as §4
# [20] = tested on: Bifidobacterium longum HM-847; assay: as above; type: cell-based; details: HM847; Bifidobacterium longum HM-847; read-out: MIC
# Procedure: as §4
# [21] = tested on: Bacteroides fragilis HM-714; assay: as above; type: cell-based; details: HM714; Bacteroides fragilis HM-714; read-out: MIC
# Procedure: as §4
smiles,measurement,setting,value
"Cc1ncc([N+](=O)[O-])n1CCO [Metronidazole, metronidazole]",toxin inhibition (in words),C. difficile NR-49277 [1],No toxin inhibition
same,toxin inhibition (in words),[2],No toxin inhibition
same,toxin inhibition (in words),C. difficile ATCC 43255 [3],No toxin inhibition
same,time required to generate a 3-log10 reduction in CFU/mL,C. difficile NR-49277 [4],12 hours
same,time required to generate a 3-log10 reduction in CFU/mL,[5],12 hours
same,MIC of metronidazole combined with DIHQ,C. difficile I9,0.015 µg/mL
same,MIC of metronidazole combined with DIHQ,[6],0.015 µg/mL
same,MIC of metronidazole combined with DIHQ,C. difficile ATCC 43255 [7],0.015 µg/mL
same,MIC,C. difficile ATCC 43255 [8],0.25 µg/mL
same,MIC,[9],> 128 µg/mL
same,MIC,[10],≤ 1 µg/mL
same,MIC,Bacteroides dorei HM-29,≤ 1 µg/mL
same,MIC,[11],≤ 1 µg/mL
same,MIC,[12],2 µg/mL
same,MIC,[13],≤ 1 µg/mL
same,MIC,[14],> 128 µg/mL
same,MIC,Bacteroides dorei HM-719,≤ 1 µg/mL
same,MIC,[15],2 µg/mL
same,MIC,[16],2 µg/mL
same,MIC,[17],16 µg/mL
same,MIC,[18],≤ 1 µg/mL
same,MIC,Bacteroides dorei HM-717,≤ 1 µg/mL
same,MIC,Bacteroides dorei HM-718,≤ 1 µg/mL
same,MIC,[19],≤ 1 µg/mL
same,MIC,[20],≤ 1 µg/mL
same,MIC,[21],≤ 1 µg/mL
